Here are results for one compound from article PMC10527014 (Antiviral research, 2023).

The subject of this data set is RD. As to the kind of experiment: Cytotoxicity. In kind it is cell-based, human. To be noted: read-out: 50% Cytotoxic concentration CC50, line of ma-EV-D68.

As to `Cc1cc(-c2noc(C(F)(F)F)n2)ccc1OCCCc1cc(C(=O)N(C)C)no1` [compound 11526092, 3-(3-methyl-4-(3-(3-N,N-dimethylcarbamoyl-isoxazol-5-yl)propoxy)phenyl)-5-trifluoromethyl-1,2,4-oxadiazole], the CC50 was determined as 9.4 µM.
